From patent US20240174641A1, “HETEROCYCLIC COMPOUNDS CAPABLE OF […]” (Boehringer Ingelheim International GmbH, priority 2022, published 2024)

Tested on: dog STING (dSTING)
Assay: Dog differential scanning fluorimetry (DSF) assay, thermal shift of dog STING protein
Format: binding
Conditions: DSF (dDSF); 100 μM compound, 3 μM dog STING protein; Tm with ligand minus Tm of protein alone
Description: The protein used for the biophysical experiments was a recombinant dog STING protein comprising its cytosolic cGAMP binding ectodomain. A codon optimized DNA sequence (for expression in Escherichia coli) encoding amino acid residues 149 to 375 of dog STING was synthesized by GeneArt (Regensburg, Germany) and inserted into a pET17b E. coli expression vector. The protein construct encodes an N-terminal 8×His-tag followed by tobacco etch virus protease (TEV) cleavage site and the above STING gene sequence. The resulting protein sequence for the used dog STING protein (SEQ ID No. 1) is listed below:
For expression of the above recombinant dog STING, the construct was transformed into E. coli BL21 DE3 strain and grown in shake flasks in LB-medium at 15° C. Expression was induced by addition of isopropyl β-D-1-thiogalactopyranoside to a final concentration of 1 mM and cultures shaken overnight. Cell pellets were centrifuged and stored at −70° C. until further use. Protein was purified by cell thawing in lysis buffer (20 mM TRIS-HCl, pH 8, 500 mM NaCl, 1 mM DTT, 0.5 mg/ml lysozyme, Complete Protease Inhibitor (Roche) and DNase (Roche)), followed by metal affinity purification using Ni-NTA resins and elution buffer consisting of 20 mM TRIS-HCl, pH 8, 500 mM NaCl, 1 mM DTT, 300 mM imidazole. Cleavage of the His-Tag using TEV-protease took place during dialysis in size exclusion buffer (20 mM TRIS-HCl, pH 8, 100 mM NaCl, 1 mM DTT) over night. To further purify the target protein a reverse Nickel affinity column was used and the flow through was applied to a size exclusion chromatography. The peak fraction was collected and concentrated to 5 mg/mL.
Dye fluorescence is quenched in aqueous environment and increases upon association of the dye with the hydrophobic parts of the unfolding protein. […] The inflection point of the curve represents the “melting” temperature of the protein (Tm) which is calculated numerically using the Boltzmann equation.
The thermal stability of the dog STING protein was measured in assay buffer containing 20 mM Tris, 150 mM NaCl at pH7.5. The assay uses 384-Well qPCR Plates (Catalog #781358, BRAND), Microseal® ‘B’ Adhesive Seals for PCR Plates (Catalog #MSB-1001, BIO-RAD) and was run on a CFX384 Real-Time System (Bio-Rad). A DMSO stock solution of SYPRO orange (SIGMA 55692-500UL) was prepared. Compound stock solutions (10 mM in DMSO) were diluted 1:2 in DMSO to an intermediate compound concentration of 5 mM and then further diluted 1:40 in assay buffer resulting in a compound concentration of 125 μM and 2.5% DMSO. Fluorescent dye stock solution (5000×SYPRO Orange) was then mixed with target protein and buffer to a concentration of 15 μM Protein and 25×SYPRO Orange. 2 μl of this protein-dye-mixture was added to 8 μl compound solution. Final volume was 10 μL. 3-6 well positions were used as negative control (protein with 2% DMSO). The plates were prepared for duplicate measurement and centrifuged for 2 min at 1000 g. In the measurement, 160 cycles of 0.5° C. were used (temperature ramp 15 s/cycle, 15° C. to 95° C.).
Final Assay concentrations for compound characterization were 100 μM compound, 3 μM target protein, 5×SYPRO Orange, and 2% DMSO in 10 μl. All dispensing steps were performed using a HamiltonStar pipetting robot (Hamilton).
Dissociation curves were processed in Bio-Rad CFX Manager. Peak type was set to “negative”. Compound codes for screen were assigned in the plate layout.
Two replicates of TM measurements were averaged, and the standard deviation was calculated. In cases of SD>1.5° C. the measurement was repeated.
The melting point (Tm) obtained for STING protein alone was subtracted from T obtained for protein incubated with ligand to generate ΔTm values.

Going from `Cc1cccc2c(-c3cc(F)cc4nn(C)cc34)nn(-c3ccc(N4CC[C@@H](CC(=O)O)C4)nc3)c12` [Example 35, 2-[(3S)-1-(5-{6″-fluoro-2″,7-dimethyl-1H,2″H-[3,4″-biindazol]-1-yl}pyridin-2-yl)pyrrolidin-3-yl]acetic acid] to `Cc1cccc2c(-c3cc(F)cc4nn(C)cc34)nn(-c3ccc(N4CC[C@H](CC(=O)O)C4)nc3)c12` [Example 36, 2-[(3R)-1-(5-{6″-fluoro-2″,7-dimethyl-1H,2″H-[3,4″-biindazol]-1-yl}pyridin-2-yl)pyrrolidin-3-yl]acetic acid], the “Delta TM” value rises from 22.5 °C to 24.0 °C.

First: Cc1cccc2c(-c3c(F)ccc4nn(C)cc34)nn(-c3ccc(N4CC5CCC4CC5C(=O)O)nc3)c12 (single isomer, unassigned) [Example 28-2]
Second: Cc1cccc2c(-c3c(F)cc(F)c4nn(C)cc34)nn(-c3ccc(N4CC5CCC4CC5C(=O)O)nc3)c12 (single isomer, unassigned) [Example 48-2]
The “Delta TM” value of the first is higher: 25.9 °C for the first, 24.6 °C for the second.

Compared with `Cc1cccc2c(-c3cc(F)cc4nn(C)cc34)nn(-c3ccc(N4C[C@@H]5C[C@H]4C[C@H]5C(=O)O)nc3)c12` (single isomer, unassigned) [Example 38-1], `Cc1cccc2c(-c3cc(F)cc4nn(C)cc34)nn(-c3ccc(N4C[C@H]5C[C@@H]4C[C@@H]5C(=O)O)nc3)c12` (single isomer, unassigned) [Example 38-2] is lower in “Delta TM” value: 24.8 °C for the first, 23.0 °C for the second.

Going from `CC(=O)N1C[C@H]2C[C@@H]1CN2c1ccc(-n2nc(-c3cc(F)cc4nn(C)cc34)c3cccc(C)c32)cn1` [Example 42, 1-[(1R,4R)-5-(5-{6″-fluoro-2″,7-dimethyl-1H,2″H-[3,4″-biindazol]-1-yl}pyridin-2-yl)-2,5-diazabicyclo[2.2.1]heptan-2-yl]ethan-1-one] to `CC(=O)N1C[C@@H]2C[C@H]1CN2c1ccc(-n2nc(-c3cc(F)cc4nn(C)cc34)c3cccc(C)c32)cn1` [Example 41, 1-[(1S,4S)-5-(5-{6″-fluoro-2″,7-dimethyl-1H,2″H-[3,4″-biindazol]-1-yl}pyridin-2-yl)-2,5-diazabicyclo[2.2.1]heptan-2-yl]ethan-1-one], the “Delta TM” value rises from 15.8 °C to 16.0 °C.

Going from `Cc1cccc2c(-c3cccc4nn(C)c(F)c34)nn(-c3ccc(N4CC5CCC4CC5C(=O)O)nc3)c12` (single isomer, unassigned) [Example 20-2, 2-(5-{3'-fluoro-2',7-dimethyl-1H,2'H-[3,4'-biindazol]-1-yl}pyridin-2-yl)-2-azabicyclo[2.2.2]octane-5-carboxylic acid] to `Cc1cccc2c(-c3c(F)ccc4nn(C)cc34)nn(-c3ccc(N4CC5CCC4CC5C(=O)O)nc3)c12` (single isomer, unassigned) [Example 28-1], the “Delta TM” value rises from 22.6 °C to 26.6 °C.

Compared with `CC(=O)N1C[C@@H]2C[C@H]1CN2c1ccc(-n2nc(-c3c(F)cc(F)c4nn(C)cc34)c3cccc(C)c32)cn1` [Example 50, 1-[(1S,4S)-5-(5-{5″,7″-difluoro-2″,7-dimethyl-1H,2″H-[3,4″-biindazol]-1-yl}pyridin-2-yl)-2,5-diazabicyclo[2.2.1]heptan-2-yl]ethan-1-one], `CC(=O)N1CC2CCC1CN2c1ccc(-n2nc(-c3c(F)cc(F)c4nn(C)cc34)c3cccc(C)c32)cn1` (centres unmarked) [Example 52, 1-[5-(5-{5″,7″-difluoro-2″,7-dimethyl-1H,2″H-[3,4″-biindazol]-1-yl}pyridin-2-yl)-2,5-diazabicyclo [2.2.2]octan-2-yl]ethan-1-one] is higher in “Delta TM” value: 25.0 °C for the first, 25.8 °C for the second.

`Cc1cccc2c(-c3ccc(F)c4nn(C)c(F)c34)nn(-c3ccc(N4C[C@@H]5C[C@H]4C[C@H]5C(=O)O)nc3)c12` (single isomer, unassigned) [Example 56-1] and `Cc1cccc2c(-c3ccc(F)c4nn(C)c(F)c34)nn(-c3ccc(N4C[C@H]5C[C@@H]4C[C@@H]5C(=O)O)nc3)c12` (single isomer, unassigned) [Example 56-2] are the same in “Delta TM” value: 33.0 °C for the first, 33.0 °C for the second.

Compared with `Cc1cccc2c(-c3c(F)ccc4nn(C)cc34)nn(-c3ccc(N4CCOC(CC(=O)O)C4)nc3)c12` [Example 26-2, 2-[(2S)-4-(5-{5″-fluoro-2″,7-dimethyl-1H,2″H-[3,4″-biindazol]-1-yl}pyridin-2-yl)morpholin-2-yl]acetic acid], `Cc1cccc2c(-c3cc(F)cc4nn(C)cc34)nn(-c3ccc(N4CCO[C@H](CC(=O)O)C4)nc3)c12` [Example 37-1, 2-[(2R)-4-(5-{6″-fluoro-2″,7-dimethyl-1H,2″H-[3,4″-biindazol]-1-yl}pyridin-2-yl)morpholin-2-yl]acetic acid] is lower in “Delta TM” value: 32.0 °C for the first, 16.0 °C for the second.

Compared with `Cc1cccc2c(-c3c(F)cc(F)c4nn(C)cc34)nn(-c3ccc(N4CC5CCC4CC5C(=O)O)nc3)c12` (single isomer, unassigned) [Example 48-1], `Cc1cccc2c(-c3cc(F)cc4nn(C)cc34)nn(-c3ccc(N4CC5CCC4CC5C(=O)O)nc3)c12` (centres unmarked) [Example 39, 2-(5-{6″-fluoro-2″,7-dimethyl-1H,2″H-[3,4″-biindazol]-1-yl}pyridin-2-yl)-2-azabicyclo [2.2.2]octane-5-carboxylic acid] is lower in “Delta TM” value: 23.9 °C for the first, −0.3 °C for the second.

`CC(=O)N1CC2CCC1CN2c1ccc(-n2nc(-c3c(F)ccc4nn(C)cc34)c3cccc(C)c32)cn1` (centres unmarked) [Example 32] and `Cc1cccc2c(-c3c(F)ccc4nn(C)cc34)nn(-c3ccc(N4CCOC(CC(=O)O)C4)nc3)c12` [Example 26-1, 2-[(2R)-4-(5-{5″-fluoro-2″,7-dimethyl-1H,2″H-[3,4″-biindazol]-1-yl}pyridin-2-yl)morpholin-2-yl]acetic acid] are the same in “Delta TM” value: 31.0 °C for the first, 31.0 °C for the second.

First: Cc1cccc2c(-c3cc(F)cc4nn(C)c(F)c34)nn(-c3ccc(N4C[C@@H]5[C@H](C4)[C@H]5C(=O)O)nc3)c12 [Example 75, (1R,5S,6R)-3-(5-{3″,6″-difluoro-2″,7-dimethyl-1H,2″H-[3,4″-biindazol]-1-yl}pyridin-2-yl)-3-azabicyclo[3.1.0]hexane-6-carboxylic acid]
Second: Cc1cccc2c(-c3cc(F)cc4nn(C)cc34)nn(-c3ccc(N4CCC(C(=O)O)CC4)nc3)c12 [Example 33, 1-(5-{6″-fluoro-2″,7-dimethyl-1H,2″H-[3,4″-biindazol]-1-yl}pyridin-2-yl)piperidine-4-carboxylic acid]
The “Delta TM” value of the first is lower: 21.8 °C for the first, 22.5 °C for the second.

Compared with `CC(=O)N1CCN(c2ccc(-n3nc(-c4ccc(F)c5nn(C)c(F)c45)c4cccc(C)c43)cn2)CC1` [Example 57, 1-[4-(5-{3″,7″-difluoro-2″,7-dimethyl-1H,2″H-[3,4″-biindazol]-1-yl}pyridin-2-yl)piperazin-1-yl]ethan-1-one], `CC(=O)N1CCN(c2ccc(-n3nc(-c4cc(F)cc5nn(C)cc45)c4cccc(C)c43)cn2)CC1` [Example 40, 1-[4-(5-{6″-fluoro-2″,7-dimethyl-1H,2″H-[3,4″-biindazol]-1-yl}pyridin-2-yl)piperazin-1-yl]ethan-1-one] is lower in “Delta TM” value: 27.5 °C for the first, 17.8 °C for the second.

First: CC(=O)N1CCN(c2ccc(-n3nc(-c4c(F)cc(F)c5nn(C)cc45)c4ccc(F)c(C)c43)cn2)CC1 [Example 71, 1-[4-(5-{5″,6,7″-trifluoro-2″,7-dimethyl-1H,2″H-[3,4″-biindazol]-1-yl}pyridin-2-yl)piperazin-1-yl]ethan-1-one]
Second: Cc1cccc2c(-c3cc(F)cc4nn(C)cc34)nn(-c3ccc(N4CCO[C@@H](CC(=O)O)C4)nc3)c12 [Example 37-2, 2-[(2S)-4-(5-{6″-fluoro-2″,7-dimethyl-1H,2″H-[3,4″-biindazol]-1-yl}pyridin-2-yl)morpholin-2-yl]acetic acid]
The “Delta TM” value of the first is higher: 31.3 °C for the first, 18.0 °C for the second.
